Measurements from patent US7482008B1, “Human T cell reactive feline protein (TRFP) isolated from house dust and uses therefor” (Merck Patent GmbH, priority 1989, dated 2009).

System: BDF1 mice preimmunized with TRFP
Test: Peptide Y tolerization of mice preimmunized with TRFP, IL-2 (CTLL-2) and IL-4 (CT4S) production
Assay type: in vivo, mouse
Procedure: BDF1 mice were each immunized with 100 μg TRFP in 200 μl IFA (Incomplete Freund's Adjuvant) in a single site intraperitoneally. After four months, the mice were bled and grouped according to their anti-TRFP IgG antibody levels as follows. The mice were warmed with an infra-red lamp and bled through one of the tail veins by nicking the vein with a razor blade (Gilette Platinum Plus). The blood was allowed to drip into a serum separating tube (Microtainer, Becton-Dickenson) and allowed to clot. The sera was then separated from the clot by centrifugation at 13,000 rpm. The sera was stored at −20° C. until use. The sera was assayed for TRFP-specific IgG by ELISA. […] After rinsing, the bound mouse antibody was detected by incubation with biotinylated goat anti-mouse IgG (Southern Biotechnology Associates) diluted 1/10000 in PBS. […] The resulting O.D. values were read by an ELISA reader (Bio-Tek modal #310) at 450 nm to quantitate the complexes bound to TRFP protein on the plates. […]
There are several phenotypic classes of T helper cells which can be differentiated by their production of lymphokines. […] IL-2 production is easily measured from primary in vitro lymph node cultures through the IL-2 dependent CTLL-2 cell line. Similarly, IL-4 can be measured with cultures of the IL-4 dependent CT4S cells (provided by W. Paul). […] The plates were harvested and counted identically to the IL-2 assays detailed above. […]

“peptide Y: amino acid residues 29-55 from chain 1 of TRFP (SEQ. ID. NO: 18) (KALPVVLENARILKNCVDAKMTEEDKE)” was tested, and the “tolerization of peptide Y specific T cells (IL-2)” value (300 μg s.c. days 0 and 5, animals preimmunized with TRFP) was “can be tolerized” and the “peptide specific production of both IL-2 and IL-4 in secondary in vitro cultures” value (pooled lymph node cells, stimulation index) was “decreased”.
